Reference: article PMC4988501, “Pinpointing a Mechanistic Switch Between Ketoreduction and “Ene” Reduction in Short‐Chain Dehydrogenases/Reductases” (Angewandte Chemie (International Ed. in English), 2016)

Experiments:
Assay type in all cases: binding
[1] = biological target: T1, IPR (isopiperitenone reductase) (Mentha x piperita, UniProt Q6WAU1); assay: X-ray crystal structure; conditions: oxidised cofactor scavenged from expression host
T1 construct: recombinant; scavenged NADP+ from host cells; catalytic Glu238; construct details only in supplement

[2] = biological target: T2, MNMR ((−)‐menthone:(+)‐neomenthol reductase) (Mentha x piperita, UniProt Q06ZW2); assay: X-ray crystal structure, crystal soaking; conditions: crystals soaked with NADP+
T2 construct: recombinant; catalytic Tyr244; construct details only in supplement

[3] = biological target: T1, IPR (isopiperitenone reductase); assay: X-ray crystal structure of complex; conditions: non-substrate, bound in a non-active conformation; with NADP+

T1 sequence (Q6WAU1 whole entry): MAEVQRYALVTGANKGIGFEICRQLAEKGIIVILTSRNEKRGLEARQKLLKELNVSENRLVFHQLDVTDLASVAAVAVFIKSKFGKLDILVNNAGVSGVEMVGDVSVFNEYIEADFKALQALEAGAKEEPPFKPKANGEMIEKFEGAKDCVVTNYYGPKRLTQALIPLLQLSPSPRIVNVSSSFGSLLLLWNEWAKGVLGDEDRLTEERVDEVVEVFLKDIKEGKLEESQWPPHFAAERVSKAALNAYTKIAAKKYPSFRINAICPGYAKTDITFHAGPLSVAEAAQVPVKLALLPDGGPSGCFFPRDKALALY
T2 sequence (Q06ZW2 entry or part of it): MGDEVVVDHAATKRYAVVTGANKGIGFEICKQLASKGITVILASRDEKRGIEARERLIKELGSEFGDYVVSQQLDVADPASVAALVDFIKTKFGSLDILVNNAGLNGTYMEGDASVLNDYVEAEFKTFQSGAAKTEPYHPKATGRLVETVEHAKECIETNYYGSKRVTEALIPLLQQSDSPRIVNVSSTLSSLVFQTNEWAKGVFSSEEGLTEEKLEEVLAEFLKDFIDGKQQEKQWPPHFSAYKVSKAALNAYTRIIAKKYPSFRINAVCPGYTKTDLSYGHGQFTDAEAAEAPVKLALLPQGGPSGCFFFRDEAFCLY

Structure (SMILES) | X-ray crystal structure [1] | X-ray crystal structure, crystal soaking [2] | X-ray crystal structure of complex [3]
NC(=O)c1ccc[n+]([C@@H]2O[C@H](COP(=O)(O)OP(=O)(O)OC[C@H]3O[C@@H](n4cnc5c(N)ncnc54)[C@H](OP(=O)(O)O)[C@@H]3O)[C@@H](O)[C@H]2O)c1 [NADP+] | presence of clear density in the F0−Fc map for NADP^+ | A coenzyme‐bound MNMR structure was obtained by soaking crystals with NADP^+ | 
CC1=C(C=O)C(C)(C)CCC1 [β‐cyclocitral] |  |  | The IPR–β‐cyclocitral co‐crystal structure shows the ligand binds in a non‐active conformation
